Data as given in patent US20260355323A1, “CEREBLON-RECRUITING BCL-XL/BCL-2 DUAL DEGRADERS” (University of Florida Research Foundation, Incorporated, priority 2022, published 2026).

Assays:
WI-38 NC = experiment: Senolytic activity, cell viability (PrestoBlue HS), WI-38 NC; format: cell-based; conditions: for EC50: Homo sapiens, 72 h
Experimental: WI-38 and HUVEC cells were incubated with increasing concentrations of degraders for 72 h. Cell viability was measured using PrestoBlue HS cell viability reagent.

[1] = tested on: RS4;11 acute lymphoblastic leukemia cells; experiment: Cell viability, tetrazolium-based MTS assay, RS4;11; conditions: Homo sapiens, RS4;11, 48 h, read-out: Anti-Cancer Activity EC50 (48 hr), RS4
Experimental: (§1) Acute lymphoblastic leukemia cells (MOLT-4 and RS4;11) were incubated with increasing concentrations of Bcl-xL/Bcl-2 degraders for 48 h. Cell viability was measured by tetrazolium-based MTS assay.

[2] = tested on: MOLT-4 acute lymphoblastic leukemia cells; experiment: Cell viability, tetrazolium-based MTS assay, MOLT-4; conditions: Homo sapiens, MOLT-4, 48 h; read-out: Anti-Cancer Activity EC50 (48 hr), MOLT-4
Experimental: as §1

Structure (SMILES)	EC50 [1] [nM]	EC50 [2] [nM]	EC50 (WI-38 NC) [nM]	Senolytic Activity EC50 (72 hr), WI-38 NC (WI-38 NC)
C[C@@]1(CN2CCC(CN3CC4CC3CN4c3ccc4c(c3)CN(C3CCC(=O)NC3=O)C4=O)CC2)CCC(c2ccc(Cl)cc2)=C(CN2CCN(c3ccc(C(=O)NS(=O)(=O)c4ccc(N[C@H](CCN5CCCOCC5)CSc5ccccc5)c(S(=O)(=O)C(F)(F)F)c4)cc3)CC2)C1 (stereo partly drawn) [Compound 130, N-((4-(((R)-4-(1,4-oxazepan-4-yl)-1-(phenylthio)butan-2-yl)amino)-3-((trifluoromethyl)sulfonyl)phenyl)sulfonyl)-4-(4-(((4R)-4′-chloro-4-((4-((5-(2-(2,6-dioxopiperidin-3-yl)-1-oxoisoindolin-5-yl)-2,5-diazabicyclo[2.2.1]heptan-2-yl)methyl)piperidin-1-yl)methyl)-4-methyl-3,4,5,6-tetrahydro-[1,1′-biphenyl]-2-yl)methyl)piperazin-1-yl)benzamide]	1 to 10	1 to 10	> 10000	
C[C@@]1(CN2CC(CN3CCCN(c4ccc5c(c4)CN(C4CCC(=O)NC4=O)C5=O)CC3)C2)CCC(c2ccc(Cl)cc2)=C(CN2CCN(c3ccc(C(=O)NS(=O)(=O)c4ccc(N[C@H](CCN5CCCOCC5)CSc5ccccc5)c(S(=O)(=O)C(F)(F)F)c4)cc3)CC2)C1 (stereo partly drawn) [Compound 45, N-((4-(((R)-4-(1,4-oxazepan-4-yl)-1-(phenylthio)butan-2-yl)amino)-3-((trifluoromethyl)sulfonyl)phenyl)sulfonyl)-4-(4-(((4R)-4′-chloro-4-((3-((4-(2-(2,6-dioxopiperidin-3-yl)-1-oxoisoindolin-5-yl)-1,4-diazepan-1-yl)methyl)azetidin-1-yl)methyl)-4-methyl-3,4,5,6-tetrahydro-[1,1′-biphenyl]-2-yl)methyl)piperazin-1-yl)benzamide]	1 to 10	1 to 10		++ (100-10 μM)
CN(CC#Cc1ccc2c(c1)CN(C1CCC(=O)NC1=O)C2=O)C[C@]1(C)CCC(c2ccc(Cl)cc2)=C(CN2CCN(c3ccc(C(=O)NS(=O)(=O)c4ccc(N[C@H](CCN5CCCOCC5)CSc5ccccc5)c(S(=O)(=O)C(F)(F)F)c4)cc3)CC2)C1 (stereo partly drawn) [Compound 37, N-((4-(((R)-4-(1,4-oxazepan-4-yl)-1-(phenylthio)butan-2-yl)amino)-3-((trifluoromethyl)sulfonyl)phenyl)sulfonyl)-4-(4-(((4R)-4′-chloro-4-(((3-(2-(2,6-dioxopiperidin-3-yl)-1-oxoisoindolin-5-yl)prop-2-yn-1-yl)(methyl)amino)methyl)-4-methyl-3,4,5,6-tetrahydro-[1,1′-biphenyl]-2-yl)methyl)piperazin-1-yl)benzamide]	1 to 10	< 1	> 10000	
C[C@@]1(CN2CCN(CC#Cc3ccc4c(c3)CN(C3CCC(=O)NC3=O)C4=O)CC2)CCC(c2ccc(Cl)cc2)=C(CN2CCN(c3ccc(C(=O)NS(=O)(=O)c4ccc(N[C@H](CCN5CCCOCC5)CSc5ccccc5)c(S(=O)(=O)C(F)(F)F)c4)cc3)CC2)C1 (stereo partly drawn) [Compound 26, N-((4-(((R)-4-(1,4-oxazepan-4-yl)-1-(phenylthio)butan-2-yl)amino)-3-((trifluoromethyl)sulfonyl)phenyl)sulfonyl)-4-(4-(((4R)-4′-chloro-4-((4-(3-(2-(2,6-dioxopiperidin-3-yl)-1-oxoisoindolin-5-yl)prop-2-yn-1-yl)piperazin-1-yl)methyl)-4-methyl-3,4,5,6-tetrahydro-[1,1′-biphenyl]-2-yl)methyl)piperazin-1-yl)benzamide]	1 to 10	< 1	> 10000	
C[C@@]1(CN2CC(CN3CC4CC3CN4c3ccc4c(c3)CN(C3CCC(=O)NC3=O)C4=O)C2)CCC(c2ccc(Cl)cc2)=C(CN2CCN(c3ccc(C(=O)NS(=O)(=O)c4ccc(N[C@H](CCN5CCCOCC5)CSc5ccccc5)c(S(=O)(=O)C(F)(F)F)c4)cc3)CC2)C1 (stereo partly drawn) [Compound 131, N-((4-(((R)-4-(1,4-oxazepan-4-yl)-1-(phenylthio)butan-2-yl)amino)-3-((trifluoromethyl)sulfonyl)phenyl)sulfonyl)-4-(4-(((4R)-4′-chloro-4-((3-((5-(2-(2,6-dioxopiperidin-3-yl)-1-oxoisoindolin-5-yl)-2,5-diazabicyclo[2.2.1]heptan-2-yl)methyl)azetidin-1-yl)methyl)-4-methyl-3,4,5,6-tetrahydro-[1,1′-biphenyl]-2-yl)methyl)piperazin-1-yl)benzamide]	1 to 10	1 to 10	> 10000	
CC(C)N(CC#Cc1ccc2c(c1)CN(C1CCC(=O)NC1=O)C2=O)C[C@]1(C)CCC(c2ccc(Cl)cc2)=C(CN2CCN(c3ccc(C(=O)NS(=O)(=O)c4ccc(N[C@H](CCN5CCCOCC5)CSc5ccccc5)c(S(=O)(=O)C(F)(F)F)c4)cc3)CC2)C1 (stereo partly drawn) [Compound 38, N-((4-(((R)-4-(1,4-oxazepan-4-yl)-1-(phenylthio)butan-2-yl)amino)-3-((trifluoromethyl)sulfonyl)phenyl)sulfonyl)-4-(4-(((4R)-4′-chloro-4-(((3-(2-(2,6-dioxopiperidin-3-yl)-1-oxoisoindolin-5-yl)prop-2-yn-1-yl) (isopropyl)amino)methyl)-4-methyl-3,4,5,6-tetrahydro-[1,1′-biphenyl]-2-yl)methyl)piperazin-1-yl)benzamide]	1 to 10	1 to 10	> 10000	

The next lines start with results.

EC50 [1] [nM]	EC50 [2] [nM]	Structure (SMILES)	EC50 (WI-38 NC) [nM]	Senolytic Activity EC50 (72 hr), WI-38 NC (WI-38 NC)
< 1	< 1	C[C@@]1(CN2CCN(CCC#Cc3ccc4c(c3)CN(C3CCC(=O)NC3=O)C4=O)CC2)CCC(c2ccc(Cl)cc2)=C(CN2CCN(c3ccc(C(=O)NS(=O)(=O)c4ccc(N[C@H](CCN5CCCOCC5)CSc5ccccc5)c(S(=O)(=O)C(F)(F)F)c4)cc3)CC2)C1 (stereo partly drawn) [Compound 40, N-((4-(((R)-4-(1,4-oxazepan-4-yl)-1-(phenylthio)butan-2-yl)amino)-3-((trifluoromethyl)sulfonyl)phenyl)sulfonyl)-4-(4-(((4R)-4′-chloro-4-((4-(4-(2-(2,6-dioxopiperidin-3-yl)-1-oxoisoindolin-5-yl)but-3-yn-1-yl)piperazin-1-yl)methyl)-4-methyl-3,4,5,6-tetrahydro-[1,1′-biphenyl]-2-yl)methyl)piperazin-1-yl)benzamide]	> 10000	
< 1	< 1	C[C@@]1(CN2CCC(CCN3CCN(c4ccc5c(c4)CN(C4CCC(=O)NC4=O)C5=O)CC3)CC2)CCC(c2ccc(Cl)cc2)=C(CN2CCN(c3ccc(C(=O)NS(=O)(=O)c4ccc(N[C@H](CCN5CCCOCC5)CSc5ccccc5)c(S(=O)(=O)C(F)(F)F)c4)cc3)CC2)C1 (stereo partly drawn) [Compound 65, N-((4-(((R)-4-(1,4-oxazepan-4-yl)-1-(phenylthio)butan-2-yl)amino)-3-((trifluoromethyl)sulfonyl)phenyl)sulfonyl)-4-(4-(((4R)-4′-chloro-4-((4-(2-(4-(2-(2,6-dioxopiperidin-3-yl)-1-oxoisoindolin-5-yl)piperazin-1-yl)ethyl)piperidin-1-yl)methyl)-4-methyl-3,4,5,6-tetrahydro-[1,1′-biphenyl]-2-yl)methyl)piperazin-1-yl)benzamide]	> 10000	
< 1	< 1	C[C@@]1(CN2CCN(c3ccc4c(c3)CN(C3CCC(=O)NC3=O)C4=O)CC2)CCC(c2ccc(Cl)cc2)=C(CN2CCN(c3ccc(C(=O)NS(=O)(=O)c4ccc(N[C@H](CCN5CCCOCC5)CSc5ccccc5)c(S(=O)(=O)C(F)(F)F)c4)cc3)CC2)C1 (stereo partly drawn) [Compound 127, N-((4-(((R)-4-(1,4-oxazepan-4-yl)-1-(phenylthio)butan-2-yl)amino)-3-((trifluoromethyl)sulfonyl)phenyl)sulfonyl)-4-(4-(((4R)-4′-chloro-4-((4-(2-(2,6-dioxopiperidin-3-yl)-1-oxoisoindolin-5-yl)piperazin-1-yl)methyl)-4-methyl-3,4,5,6-tetrahydro-[1,1′-biphenyl]-2-yl)methyl)piperazin-1-yl)benzamide]	> 10000	
< 1	< 1	CC1(CN2CCN(C(=O)CN3CCN(C(=O)CNc4ccc5c(c4)C(=O)N(C4CCC(=O)NC4=O)C5=O)CC3)CC2)CCC(c2ccc(Cl)cc2)=C(CN2CCN(c3ccc(C(=O)NS(=O)(=O)c4ccc(N[C@H](CCN5CCOCC5)CSc5ccccc5)c(S(=O)(=O)C(F)(F)F)c4)cc3)CC2)C1 (stereo partly drawn) [Compound 17, 4-(4-((4′-chloro-4-((4-(2-(4-((2-(2,6-dioxopiperidin-3-yl)-1,3-dioxoisoindolin-5-yl)glycyl)piperazin-1-yl)acetyl)piperazin-1-yl)methyl)-4-methyl-3,4,5,6-tetrahydro-[1,1′-biphenyl]-2-yl)methyl)piperazin-1-yl)-N-((4-(((R)-4-morpholino-1-(phenylthio)butan-2-yl)amino)-3-((trifluoromethyl)sulfonyl)phenyl)sulfonyl)benzamide]	> 10000	
< 1	< 1	CC1CN(c2ccc3c(c2)CN(C2CCC(=O)NC2=O)C3=O)CC(C)N1CC1CCN(C[C@]2(C)CCC(c3ccc(Cl)cc3)=C(CN3CCN(c4ccc(C(=O)NS(=O)(=O)c5ccc(N[C@H](CCN6CCCOCC6)CSc6ccccc6)c(S(=O)(=O)C(F)(F)F)c5)cc4)CC3)C2)CC1 (stereo partly drawn) [Compound 50, N-((4-(((R)-4-(1,4-oxazepan-4-yl)-1-(phenylthio)butan-2-yl)amino)-3-((trifluoromethyl)sulfonyl)phenyl)sulfonyl)-4-(4-(((4R)-4′-chloro-4-((4-((4-(2-(2,6-dioxopiperidin-3-yl)-1-oxoisoindolin-5-yl)-2,6-dimethylpiperazin-1-yl)methyl)piperidin-1-yl)methyl)-4-methyl-3,4,5,6-tetrahydro-[1,1′-biphenyl]-2-yl)methyl)piperazin-1-8 yl)benzamide]		++ (100-10 μM)
